Test results taken from US6337417B1, “N-phenyltetrahydrophthalamic acid derivatives, methods of producing same, and herbicides containing same as effective components” (Central Glass Co., Ltd., priority 1994, dated 2002).

Columns and labels:
Type in all cases: in vivo
Design in all cases: key: 5: completely killed; 4: seriously injured; 3: considerably injured; 2: somewhat injured; 1: slightly injured; 0: not injured (normally grown)
[1] = test system: aobiyu (slender amaranth, Amaranthus viridis); test: Experiment 2 foliage treatment: aobiyu; settings: 4 weeks after treatment
Experimental: (§1) Upon seedling stage (two- or three-leaved stage) of rice, cockspur (Panicum crus-galli), garden radish, aobiyu (slender amaranth, Amaranthus viridis) and mehishiba (henry crabgrass, Digitaria cliaris) which were grown on a cultivated soil put in pots of 1/15500 ares, a selected compound obtained in a manner analogous to Example 8, in suspended wettable powder, was sprayed to each plant. After that, the pots were kept in a glass chamber to allow each plant to grow, and after the lapse of 4 weeks from the treatment with the selected compounds the herbicidal effects were evaluated. The evaluation of the herbicidal effects was similarly conducted as to that of Experiment 1.

garden radish [2] = test: Experiment 5 foliage treatment: garden radish; settings: foliage spray of wettable powder suspension, evaluated 4 weeks after treatment
Experimental: as §1, with “11,” for “8,”, “as” for “as to”

[3] = test system: aobiyu (slender amaranth, Amaranthus viridis); test: Experiment 8 foliage treatment: aobiyu; settings: foliage spray of wettable powder suspension, evaluated 4 weeks after treatment
Experimental: as §1, with “14,” for “8,”

[4] = test system: aobiyu (slender amaranth, Amaranthus viridis); test: Experiment 5 foliage treatment: aobiyu; settings: foliage spray of wettable powder suspension, evaluated 4 weeks after treatment
Experimental: as §1, with “11,” for “8,”, “as” for “as to”

[5] = test system: cockspur (Panicum crus-galli); test: Experiment 2 foliage treatment: cockspur; settings: 4 weeks after treatment
Experimental: as §1

rice [6] = test: Experiment 5 foliage treatment: rice; settings: foliage spray of wettable powder suspension, evaluated 4 weeks after treatment
Experimental: as §1, with “11,” for “8,”, “as” for “as to”

garden radish [7] = test: Experiment 2 foliage treatment: garden radish; settings: 4 weeks after treatment
Experimental: as §1

garden radish [8] = test: Experiment 8 foliage treatment: garden radish; settings: foliage spray of wettable powder suspension, evaluated 4 weeks after treatment
Experimental: as §1, with “14,” for “8,”

[9] = test system: mehishiba (henry crabgrass, Digitaria cliaris); test: Experiment 2 foliage treatment: mehishiba; settings: 4 weeks after treatment
Experimental: as §1

[10] = test system: mehishiba (henry crabgrass, Digitaria cliaris); test: Experiment 5 foliage treatment: mehishiba; settings: foliage spray of wettable powder suspension, evaluated 4 weeks after treatment
Experimental: as §1, with “11,” for “8,”, “as” for “as to”

[11] = test system: cockspur (Panicum crus-galli); test: Experiment 5 foliage treatment: cockspur; settings: foliage spray of wettable powder suspension, evaluated 4 weeks after treatment
Experimental: as §1, with “11,” for “8,”, “as” for “as to”

[12] = test system: mehishiba (henry crabgrass, Digitaria cliaris); test: Experiment 8 foliage treatment: mehishiba; settings: foliage spray of wettable powder suspension, evaluated 4 weeks after treatment
Experimental: as §1, with “14,” for “8,”

rice [13] = test: Experiment 2 foliage treatment: rice; settings: 4 weeks after treatment
Experimental: as §1

[14] = test system: cockspur (Panicum crus-galli); test: Experiment 8 foliage treatment: cockspur; settings: foliage spray of wettable powder suspension, evaluated 4 weeks after treatment
Experimental: as §1, with “14,” for “8,”

rice [15] = test: Experiment 8 foliage treatment: rice; settings: foliage spray of wettable powder suspension, evaluated 4 weeks after treatment
Experimental: as §1, with “14,” for “8,”

paddy rice = test: Experiment 7 flooded soil treatment: injury to paddy rice; settings: evaluated 4 weeks after treatment
From the text: (§2) Paddy soil (clay loam) was put into a pot so as to have a surface area of 1/15500 ares. Uniformly mixed seeds of several kinds of weeds, viz., nobie (barnyardgrass, Echinochloa spp.), broad-leaved weeds, hotarui (bulrush, Scirpus juncoides) and tamagayatsuri (small-flowered umbrellaplant, Cyperus difformis), were sown in the surface layer of the soil in each pot, and then paddy rice seedlings at the two- or three-leaved stage were transplanted into each pot to a depth of 2 cm, and water was fed into each pot so as to provide a 3 cm deep water layer on the soil surface. After 3 days, in other words at the initial stage of germination of nobie (barnyardgrass, Echinochloa spp.), a predetermined amount of a selected compound obtained in a manner analogous to Example 14 in the form of diluted aqueous solution was dropped into the water layer in each pot. After that, the pots were kept in a glass chamber to allow the paddy rice and the weeds to grow, and after the lapse of 4 weeks from the treatment with the selected compounds, the herbicidal effects and the degree of injury to the paddy rice were evaluated. The evaluation of the herbicidal effects was similarly conducted as that of Experiment 1.

[16] = test system: hotarui (bulrush, Scirpus juncoides); test: Experiment 7 flooded soil treatment: hotarui; settings: evaluated 4 weeks after treatment
From the text: as §2

[17] = test system: tamagayatsuri (small-flowered umbrellaplant, Cyperus difformis); test: Experiment 7 flooded soil treatment: tamagayatsuri; settings: evaluated 4 weeks after treatment
From the text: as §2

broad-leaved weeds = test: Experiment 7 flooded soil treatment: broad-leaved weeds; settings: evaluated 4 weeks after treatment
From the text: as §2

[18] = test system: nobie (barnyardgrass, Echinochloa spp.); test: Experiment 7 flooded soil treatment: nobie; settings: evaluated 4 weeks after treatment
From the text: as §2

SMILES	Herbicidal Effect aobiyu ([3]; 40 g/10a)	Herbicidal Effect aobiyu ([3]; 80 g/10a)	Herbicidal Effect garden radish (garden radish [8]; 40 g/10a)	Herbicidal Effect garden radish (garden radish [8]; 80 g/10a)	Herbicidal Effect mehishiba ([12]; 40 g/10a)	Herbicidal Effect mehishiba ([12]; 80 g/10a)	Herbicidal Effect cockspur ([14]; 40 g/10a)	Herbicidal Effect cockspur ([14]; 80 g/10a)	Herbicidal Effect rice (rice [15]; 40 g/10a)	Herbicidal Effect rice (rice [15]; 80 g/10a)	Injury of Paddy (paddy rice; 6.25 g/10a)	Injury of Paddy (paddy rice; 12.5 g/10a)	Herbicidal Effect hotarui ([16]; 6.25 g/10a)	Herbicidal Effect hotarui ([16]; 12.5 g/10a)	Herbicidal Effect tamagayatsuri ([17]; 6.25 g/10a)	Herbicidal Effect tamagayatsuri ([17]; 12.5 g/10a)	Herbicidal Effect broad-leaved weed (broad-leaved weeds; 6.25 g/10a)	Herbicidal Effect broad-leaved weed (broad-leaved weeds; 12.5 g/10a)	Herbicidal Effect nobie ([18]; 6.25 g/10a)	Herbicidal Effect nobie ([18]; 12.5 g/10a)	further results
CCC(=O)Nc1ccc(Cl)c(Cl)c1 [Comparative agentB, Propanil, reference compound]	5	5	1	3	0	1	1	1	0	0	–	–	–	–	–	–	–	–	–	–	Herbicidal Effect aobiyu ([1]; 40 g/10a): 5; Herbicidal Effect aobiyu ([1]; 80 g/10a): 5; Herbicidal Effect garden radish (garden radish [2]; 40 g/10a): 3; Herbicidal Effect garden radish (garden radish [2]; 80 g/10a): 4; Herbicidal Effect aobiyu ([4]; 40 g/10a): 5; Herbicidal Effect aobiyu ([4]; 80 g/10a): 5; Herbicidal Effect cockspur ([5]; 40 g/10a): 0; Herbicidal Effect cockspur ([5]; 80 g/10a): 0; Herbicidal Effect rice (rice [6]; 40 g/10a): 0; Herbicidal Effect rice (rice [6]; 80 g/10a): 0; Herbicidal Effect garden radish (garden radish [7]; 40 g/10a): 3; Herbicidal Effect garden radish (garden radish [7]; 80 g/10a): 4; Herbicidal Effect mehishiba ([9]; 40 g/10a): 1; Herbicidal Effect mehishiba ([9]; 80 g/10a): 1; Herbicidal Effect mehishiba ([10]; 40 g/10a): 1; Herbicidal Effect mehishiba ([10]; 80 g/10a): 1; Herbicidal Effect cockspur ([11]; 40 g/10a): 0; Herbicidal Effect cockspur ([11]; 80 g/10a): 0; Herbicidal Effect rice (rice [13]; 40 g/10a): 0; Herbicidal Effect rice (rice [13]; 80 g/10a): 0
C#CC(C)Oc1cc(N(C(=O)C2=C(C(=O)OCCC)CCCC2)C(=O)c2cccs2)c(F)cc1Cl (stereo not shown) [compound 92]	5	5	4	4	1	1	1	1	1	1	0	0	4	4	4	5	5	5	5	5	–
C#CC(C)Oc1cc(N(C(=O)C2=C(C(=O)OCCCC)CCCC2)C(=O)c2cccs2)c(F)cc1Cl (stereo not shown) [compound 93]	5	5	4	5	1	1	1	1	1	1	0.5	0.5	4	4	4	4	5	5	5	5	–
C#CC(C)Oc1cc(N(C(=O)C2=C(C(=O)OCCOC)CCCC2)C(=O)c2cccs2)c(F)cc1Cl (stereo not shown) [compound 94]	5	5	5	5	1	1	1	1	1	1	0.5	0.5	5	5	5	5	5	5	5	5	–
C#CC(C)Oc1cc(N(C(=O)C2=C(C(=O)OC)CCCC2)C(=O)c2sccc2C)c(F)cc1Cl (stereo not shown) [compound 95]	5	5	4	4	1	1	1	1	1	1	0	0	4	4	5	5	5	5	5	5	–
C#CC(C)Oc1cc(N(C(=O)C2=C(C(=O)OC)CCCC2)C(=O)c2ccc(C)s2)c(F)cc1Cl (stereo not shown) [compound 96]	5	5	5	5	1	1	1	1	1	1	0	0.5	4	4	5	5	5	5	5	5	–
